Measurements reported in patent US20240316027A1, “USE OF MARAVIROC IN PREPARATION OF DRUGS FOR TREATMENT OF MUSCLE DEGENERATIVE DISEASES” (Center for Neuromusculoskeletal Restorative Medicine Limited, priority 2023, published 2024).

Assays:
[1] = system: aged mice with sarcopenia; test: Maraviroc treatment of aged mice with sarcopenia; assay type: in vivo, mouse; conditions: 16-month-old mice, 2.5 mg/kg intraperitoneally twice a week for 6 months
Description: Next, to further illustrate the possible application for treating other muscle degenerative diseases, the effectiveness of Maraviroc is tested in aged mice with sarcopenia. 3 pairs of 16-month-old mice are intraperitoneally injected with vehicle (5% DMSO) or Maraviroc (2.5 mg/kg) twice a week for 6 months, as shown in FIG. 7. […] Overall, the Maraviroc treatment delays muscle aging and rejuvenates the mice.

[2] = system: dKO mice; test: Maraviroc treatment of dystrophic dKO (YY1; mdx) and Ctrl mice, DMD mouse model; assay type: in vivo; conditions: for voluntary exercise (running distance on exercise wheels): recorded daily for one week, FIG. 6
Source text: The research object of this invention is based on a mouse model of human Duchenne muscular dystrophy (DMD), a congenital mutation in the muscular dystrophy protein leading to spontaneous periodic muscle damage and repair. Chronic inflammation and fibrosis are typical hallmarks of DMD and may contribute to impaired skeletal muscle regeneration. […] These YY1; mdx mice (so called double knock out dKO) display decreased body and muscle weight, severe inflammation and fibrosis, and reduced lifespan. As illustrated in FIGS. 1A-1D, the body weights are continuously monitored and measured at 3M, 5M and 7M intervals and the dKO mice show continuous weight loss compared to Ctrl mice (see FIG. 1A) as time progresses. Furthermore, the reduction in muscle weight (tibialis anterior) and thickness (diaphragm) is also observed over time in contrast to Ctrl mice (see FIG. 1B). […] Meanwhile, excessive inflammation is observed on the dKO muscles as shown by the amount of immune cells infiltration in the interstitial area (see FIG. 1C), along with aggravated fibrosis (detected by Masson's Trichrome staining, see FIG. 1D).
To test the therapeutic effect of Maraviroc on the dystrophic muscles, the above-described Ctrl and dKO mice are treated with dimethyl sulfoxide (DMSO) or Maraviroc respectively.
Next, the muscle morphology is evaluated on the above-treated four groups of mice.
Next it is examined if the treatment improves muscle functions by testing the muscle performance in exercises. Both endurance and voluntary exercises are employed. For endurance exercise, mice are first placed in a treadmill machine, where the bottom of the running track is equipped with an electric shock device to force the mice to continue running as illustrated in FIG. 5. The initial speed is set to 10 cm/s and increased by 5 cm/s every two minutes. By recording the running distance until the mice are exhausted, their endurance strength is determined. […] For voluntary exercise, the mice are placed in cages equipped with exercise wheels, which are connected to counters that accurately record the distance travelled by the mice on the wheels, as illustrated in FIG. 6. The mice are continuously housed in the cages for one week, and their exercise distance on the wheels is recorded daily.

[3] = Phase IIa study; cited from earlier work
[4] = dKO mice, 60 ug in 5% DMSO intraperitoneally every two days for one month, FIG. 2

Compound: Cc1nnc(C(C)C)n1[C@@H]1C[C@H]2CC[C@@H](C1)N2CC[C@H](NC(=O)C1CCC(F)(F)CC1)c1ccccc1 [Maraviroc]
- TA muscle weight ([1]; FIG. 8): restored
- fiber size ([1]; FIG. 8): increased
- inflammation ([1]; FIG. 8): attenuated
- muscle morphology (H&E staining) ([1]; FIG. 8): remarkable improvement
- muscle functions (grip force and treadmill running) ([1]; FIG. 9): restored
- number of FAPs and macrophages ([1]; FIG. 10): reduced number
- number of MuSCs ([1]; FIG. 10): increased number
- muscle morphology, immune cell infiltration and inflammation (H&E staining of TA muscles) ([2]; Ctrl and dKO muscles, FIG. 3): improved morphology with reduced immune cell infiltration and inflammation
- effect on body weight of Ctrl mice ([2]; Ctrl mice, 60 ug intraperitoneally every two days for one month, FIG. 2): no obvious effect
- voluntary exercise (running distance on exercise wheels) ([2]; Ctrl mice): high level of voluntary exercise
- endurance strength (treadmill running distance until exhausted) ([2]; dKO mice, versus dKO mice treated with DMSO, FIG. 5): significantly higher
- body weight [2, 4]: significantly restored
- muscle weight [2, 4]: significantly restored
- muscle fibrosis (Masson's Trichrome staining) ([2]; dKO mice, FIG. 4): significantly alleviate
- voluntary exercise (running distance on exercise wheels) ([2]; dKO mice): consistent increase in running distance over time
- efficacy in the treatment of RA [3]: no efficacy
